{
  "source": "patent US20260217699A1",
  "about": "“BERBERINE TAUROURSODEOXYCHOLATE COMPOSITIONS AND METHODS THEREOF” (SHENZHEN HIGHTIDE BIOPHARMACEUTICAL LTD., priority 2023, published 2026)",
  "format_in_all_cases": "in vivo, Sprague-Dawley rats",
  "key": {"[1]": {"system": "6-OHDA Stereotactic Injection Induced PD Rats", "test": "Balance beam test", "settings": "for Foot Slips Times / Passage Time: Mean ± SEM, N=10; for Foot Slips Times: Model 1.7 ± 0.2; for Passage Time: Model 10.9 ± 1.3", "from_the_text": "(§1) The rats were respiratory anesthetized with isoflurane; the head was fixed to ensure that there was no movement and the brain surface was adjusted to be flat; the head was shaved, and a skin incision was made along the sagittal suture to expose the fontanel point; the glass electrode was positioned to the fontanel, and the axes of the coordinate monitor were zeroed to locate the brain areas of the SN and the Str based on the coordinates, in which the SN: AP=−5.0 mm; ML=−1.9 mm; DV=−8.5 mm, and Str: AP=+0.5 mm; ML=−3.0 mm; DV=−6.0 mm. […]; slowly inserted the needle into the localized area of SN and Str, waited for 10 min, and then administered the drug of 6-OHDA at a rate of […] for 10 min, and each animal was given […] of each of SN and Str area, and then the needle was slowly withdrawn after the drug was administered for 10 min, and the PD rat model was established.\nThe rat was placed on a balance beam. The time was recorded it took for the rat to pass the balance beam as well as the number of foot slips (feet leave the top of the balance beam). The average of the two successful passing times and the number of foot slips were used as the evaluation criteria for the rat's locomotor balance ability. Information regarding beam test can also be found in the literature (Allbutt, et al. 2007 J Neurosci Methods 159(2):195-202; Fine, et al. 2014 Brain Res. 1574:96-104).\nIn this study, 16 Sprague Dawley (SD) male rats 180g-220g were used to establish a PD model by stereotactic unilateral injection of 6-OHDA in the substantia nigra (SN) and striatum (Str) brain areas after one week of acclimatization feeding and were randomly divided into 2 groups of 8 rats each. One group was dosed with the test compound BTUDC 500 mg/kg (QD, p.o.) and the other group was the Model group, which was given an equal volume of 0.5% CMC-Na (QD, p.o.) as the test compound group. The animals were administered once a day for 21 consecutive days starting from the second day after modeling to evaluate the tolerability and therapeutic potential of BTUDC in the 6-OHDA PD model.\nExperimental Methods: Seventy 180-220g SD male rats were selected and fed for one week for accumulation, and the PD model was established by stereotactic unilateral injection of 6-OHDA in the Substantia Nigra (SN) and Striatum (Str) regions and were randomly divided into five groups according to their body weights including Madopar group (Madopar, 50 mg/kg), BTUDC-L group (BTUDC, 100 mg/kg), BTUDC-M group (BTUDC, 500 mg/kg), and BTUDC-H group (BTUDC, 1000 mg/kg), with 10 animals in each group. Another 10 SD male rats were taken for sham operation (only 4 μL of 0.9% NS containing 0.02% ascorbic acid was given to the SN and Str brain regions during modeling) as the Sham group. The drug was administered by gavage once daily continuously for 21 days starting on the second day of modeling (first day of dosing, D1). General observation was made during the dosing period. At the end of the administration, the test articles were evaluated for tolerance in this model and in behavioral apomorphine—asymmetric rotation test, beam test, rotarod test and grip strength test, immunofluorescence staining (TH, Ibal), and cerebrospinal fluid inflammatory factor assays to evaluate the pharmacodynamic effects of the test articles. Inflammatory factors tested included interleukin 6 (1L-6), inflammatory factor […], Tumor Necrosis Factor alpha (TNF-α), inflammatory assays were done in a total of 4 groups included Sham, Model, Madopar and BTUDC-H groups."}, "IL-6": {"system": "IL-6", "test": "Elisa test of cerebrospinal fluid, IL-6", "settings": "rat cerebrospinal fluid; BTUDC-H 1000 mg/kg p.o. Qd 21 days; Mean ± SEM, n=10; Model 159.058 ± 6.349; p<0.05 vs Model", "from_the_text": "(§2) The cerebrospinal fluid was directly extracted by inserting a needle through the foramen magnum, and the supernatant was collected after centrifugation for ELISA testing. The kit brand was Shanghai Enzyme Link. The product codes of IL-6, IL-1β, and TNF-α were m1064292, m1037361, and m1002859, respectively. Processed the sample according to the instructions of the ELISA detection kit, adjusted the blank well to zero, measured the absorbance (OD value) of each well sequentially at a wavelength of 450 nm, and calculated the sample concentration based on the standard curve and OD value. […]\n(§3) Dosing volume: 10 mL/kg • 1. […] Histochemical test: After the behavioral test, the cerebrospinal fluid from each animal (N=10) was collected, centrifuged to collect the supernatant, and stored at −80° C. for Elisa test (IL-6, IL-1β, TNF-α), then the animals in each group (N=5) were randomly selected to take the modeling side of the striatum for the detection of neurotransmitters, and the rest of them (N=5) were subjected to cardiac perfusion, which was performed by the process of perfusion, fixation, sedimentation and slicing for immunofluorescence staining and photographed, and the number or area of signals were counted by ImageJ software. • 4. […]"}, "TNF-α": {"system": "TNF-α", "test": "Elisa test of cerebrospinal fluid, TNF-α", "settings": "rat cerebrospinal fluid; BTUDC-H 1000 mg/kg p.o. Qd 21 days; Mean ± SEM, n=10; Model 271.022 ± 8.145; p<0.05 vs Model", "from_the_text": "as §2, §3"}, "[2]": {"system": "6-OHDA Stereotactic Injection Induced PD Rats", "test": "Grip strength test", "settings": "for Peak Grip Strength: Mean ± SEM, N=10, Model 558.334 ± 10.175, p<0.001 vs Model", "from_the_text": "as §1\nThe animal was placed on the platform with both forelimbs on the gripping pole, followed by grabbing the animal's tail, and pulling it straight back until the pulling force exceeded their gripping force. After the animals lose their grip, the preamplifier automatically recorded the maximum value of the pulling force. After the measurement was completed, the average of the maximum pulling force of each group of animals was calculated to evaluate the rat's locomotor muscle ability. Information on the grip strength test can also be found in the literature (Jeyasingham, et al. 2001 Brain Res Bull. 55(4):541-8).\nIn this study, 16 Sprague Dawley (SD) male rats 180g-220g were used to establish a PD model by stereotactic unilateral injection of 6-OHDA in the substantia nigra (SN) and striatum (Str) brain areas after one week of acclimatization feeding and were randomly divided into 2 groups of 8 rats each. […]\nExperimental Methods: Seventy 180-220g SD male rats were selected and fed for one week for accumulation, and the PD model was established by stereotactic unilateral injection of 6-OHDA in the Substantia Nigra (SN) and Striatum (Str) regions and were randomly divided into five groups according to their body weights including Madopar group (Madopar, 50 mg/kg), BTUDC-L group (BTUDC, 100 mg/kg), BTUDC-M group (BTUDC, 500 mg/kg), and BTUDC-H group (BTUDC, 1000 mg/kg), with 10 animals in each group. […] At the end of the administration, the test articles were evaluated for tolerance in this model and in behavioral apomorphine—asymmetric rotation test, beam test, rotarod test and grip strength test, immunofluorescence staining (TH, Ibal), and cerebrospinal fluid inflammatory factor assays to evaluate the pharmacodynamic effects of the test articles. […]"}, "[3]": {"settings": "BTUDC-H 1000 mg/kg p.o. Qd 21 days, p<0.001 vs Model"}},
  "data": [
    {"smiles": "COc1ccc2cc3[n+](cc2c1OC)CCc1cc2c(cc1-3)OCO2.C[C@H](CCC(=O)NCCS(=O)(=O)[O-])[C@H]1CC[C@H]2[C@@H]3[C@@H](O)C[C@@H]4C[C@H](O)CC[C@]4(C)[C@H]3CC[C@]12C", "note": "[BTUDC, Berberine tauroursodeoxycholate]", "values": [
      {"measurement": "Beam Test Number of feet slips", "setting": "[1]; 500 mg/kg QD p.o. 21 days, Model 1.313 ± 0.3772, P < 0.001 vs Model", "result": "0.250 ± 0.0945"},
      {"measurement": "Beam Test Passing time", "setting": "[1]; 500 mg/kg QD p.o. 21 days, Model 9.938 ± 1.8088, P < 0.001 vs Model", "result": "3.563 ± 0.6228", "unit": "s"},
      {"measurement": "Foot Slips Times", "setting": "[1]; [3]", "result": "0.6 ± 0.2"},
      {"measurement": "Passage Time", "setting": "[1]; [3]", "result": "4.8 ± 0.4", "unit": "s"},
      {"measurement": "Foot Slips Times", "setting": "[1]; BTUDC-L 100 mg/kg p.o. Qd 21 days, p<0.05 vs Model", "result": "1.0 ± 0.3"},
      {"measurement": "Passage Time", "setting": "[1]; BTUDC-L 100 mg/kg p.o. Qd 21 days, p<0.01 vs Model", "result": "8.0 ± 0.7", "unit": "s"},
      {"measurement": "Foot Slips Times", "setting": "[1]; BTUDC-M 500 mg/kg p.o. Qd 21 days, p<0.01 vs Model", "result": "0.8 ± 0.2"},
      {"measurement": "Passage Time", "setting": "[1]; BTUDC-M 500 mg/kg p.o. Qd 21 days, p<0.001 vs Model", "result": "6.4 ± 0.7", "unit": "s"},
      {"measurement": "IL-6 Conc.", "setting": "IL-6", "result": "147.095 ± 1.871", "unit": "pg/mL"},
      {"measurement": "TNF-α Conc.", "setting": "TNF-α", "result": "250.424 ± 9.186", "unit": "pg/mL"},
      {"measurement": "Grip Strength Test Peak grip strength(gf)", "setting": "[2]; 500 mg/kg QD p.o. 21 days, Model 535.521 ± 15.5632, P < 0.001 vs Model", "result": "757.479 ± 7.5044", "unit": "gf"},
      {"measurement": "Peak Grip Strength", "setting": "[2]; BTUDC-H 1000 mg/kg p.o. Qd 21 days", "result": "767.101 ± 6.668"},
      {"measurement": "Peak Grip Strength", "setting": "[2]; BTUDC-L 100 mg/kg p.o. Qd 21 days", "result": "711.616 ± 7.934"},
      {"measurement": "Peak Grip Strength", "setting": "[2]; BTUDC-M 500 mg/kg p.o. Qd 21 days", "result": "737.000 ± 8.222"}
    ]}
  ]
}
